Measurements as given in paper PMC9120013, “Ribosome inhibition by C9ORF72-ALS/FTD-associated poly-PR and poly-GR proteins revealed by cryo-EM” (Nature Communications, 2022).
Like-named read-outs stand apart in the source and are kept apart here. Ends that are not written are not given here.

What was measured:
E. coli 70S ribosomes = experiment: Kinetic peptidyl transfer (puromycin) assay on E. coli 70S ribosomes; format: biochemical; settings: for Ki: n = 2
Method: The effects of GRn or PRn on peptide bond formation in E. coli ribosome were tested in an in vitro assay that reacts the 70S ribosome loaded with [^35S]-fMet-tRNA^fMet in the P-site with puromycin, an A-site tRNA mimic, and measures the release of the resulting dipeptide containing formyl-methionine covalently bonded to puromycin, as described. E. coli tRNA^fMet (Chemical Block) was aminoacylated with [^35S]-N-formyl-L-methionine (Perkin Elmer) as described. 70S ribosomes were prepared from E. coli (MRE600) as described. 70S ribosomes were stored in the ribosome-storage buffer (20 mM Tris-HCl, pH 7.0; 100 mM NH4Cl; 20 mM MgCl2) at –80 °C. A model mRNA fragment, containing the Shine-Dalgarno sequence and a spacer to position the AUG codon in the P-site and the UUC codon in the A site (GGCAAGGAGGUAAAAAUGUUC AAAAAA), was synthesized by IDT. 70S•mRNA•fMet-tRNA^fMet complexes with GRn (where n = 4, 10 or 20) or PRn (where n = 4, 10, 20 or 40) were formed as follows. 330 nM 70S ribosomes were incubated with 11 µM mRNA in buffer containing 20 mM Tris-acetate (pH 7.0), 100 mM NH4OAc, 12 mM Mg(OAc)2, for 2 min at 37 °C. 730 nM [^35S]-fMet-tRNA^fMet was added and incubated for 5 min at 37 °C. The solution was diluted 9.6-fold with the same buffer, followed by addition of a GRn or PRn repeat peptide (22x relative to its final concentration). The complex was incubated for 5 min at 37 °C prior to addition of puromycin dissolved in the same buffer (see below).
(§1) The kinetics of puromycin reaction on the 70S or 80S ribosomes were recorded and analyzed essentially as described. An aliquot (4.5 μl) of the complex prior to addition of puromycin was quenched in 30 μl of saturated MgSO4 in 0.1 M NaOAc to represent the zero-time point. Five microliters of 500 µM puromycin (in the same buffer as that used for the ribosomal complex) was added to 45 μl of the complex to initiate the reaction, yielding estimated final concentrations: 30 nM for the ribosome, 1 µM mRNA, 66 nM [^35S]-fMet-tRNA^fMet, 50 µM puromycin, and varying concentrations of PRn and GRn peptides, from 30 nM to 2 μM. After 6, 15, 30, 90 s, and 5, 15, 30, 60, and (for slower reactions) 180 min, 5-μl aliquots were quenched in 30 μl of saturated MgSO4 in 0.1 M NaOAc. All quenched samples were extracted with 700 μl ethyl-acetate. 600 μl of the extract were mixed with 3.5 ml of Econo-Safe scintillation cocktail (RPI), and the amount of released [^35S]-labeled dipeptide was measured for each time point using a scintillation counter (Beckman Coulter, Inc.).
(§2) All time progress curves were recorded in duplicates, using independently prepared 70S or 80S complexes. Reaction rates were calculated using single-exponential or double-exponential (80S complexes) regressions for different concentrations of PRn and GRn using GraphPad Prism 8. Hyperbola fitting in Gnuplot was used to derive apparent Ki-values.

[1] = system: ribosomes on endogenous beta-globin mRNA in RRL; experiment: Toeprinting of 80S and 4-5-mer polysome fractions on beta-globin mRNA; format: biochemical, rabbit; settings: for Ratio (START to CDS) / Normalized ratio START/ORF: 80S fraction, primer A, Fig. 2f independent repeat; for Normalized ratio START/ORF: no inhibitor = 1; for normalized ratio START to CDS, MEAN: 4-5-mer, primer B, mean of ten 20 bp windows
Method: Toeprinting analyses were carried out similarly to those in refs. [51],[74], using 80S and polysome (4–5-some) fractions collected from polysome profiles as described in “Polysome Profiles” except that reactions were doubled in size (200 μL), performed at 37 °C, and were stopped with ice-cold 1xAMV Buffer (50 mM Tris-HCl pH 8.3, 50 mM KCl, 5 mM MgCl2) with 200 μg/ml cycloheximide before being separated on at 10–35% sucrose gradient in 1xAMV buffer with 0.5 mM spermidine and 1 mM DTT. 600 μl of each fraction (80S or 4–5-mer) was supplemented with 10 mM DTT. Then 10 U of AMV reverse transcriptase (Promega), 120 nmol dNTPs, and 120 pmol of a 5'[6-carboxyfluorescein (FAM)]-labeled primer (IDT-DNA) were added. Two primers specific to the endogenous beta-globin mRNA in RRL were used in separate reactions: 5′-(FAM)-GGACTCGAAGAACCTCTG (as in ref. [74]) annealed 136 nucleotides downstream of the AUG or 5′-(FAM)-[…] annealed to the end of the 3'-UTR. Primers were extended at 37 °C for 30 min, and then the reaction were extracted in 1:1 phenol:chloroform, supplemented with 1/10 volume of 3 M sodium acetate pH 5.2, and precipitated with 2.5 volumes of 100% ethanol. Pellets were resuspended in 10 μl of deionized formamide (Applied Biosystems) with 1/20 volume of a 35-500 nucleotide orange-dye labeled DNA size standard (MCLab) and loaded onto a 96-well plate. The samples were sent for fragment analysis by capillary electrophoresis to the UMass Chan Medical School Molecular Biology Core Laboratory using an ABI3730XL DNA Fragment Analyzer with capillaries loaded with POP-7 polymer and with an injection voltage of 12.5 kV. Data collection was performed with GeneMapper software (ABI). Data were exported as.fsa files and were analyzed (aligning to ladder and background correction) in GeneMarker 3.0.1 software (SoftGenetics) running in demo mode. Screen captures of traces were taken and traces were integrated using the “Quantification” feature and manually adjusting sliders to include the desired nucleotide range.

[2] = target: translation of nanoluciferase mRNA in rabbit reticulocyte lysates; experiment: Nanoluciferase mRNA translation in rabbit reticulocyte lysate, inhibitor preincubated 5 min before mRNA; format: biochemical; settings: for IC50: same extracts as the DPR assay, read-out: IC50 in RRL extracts, range stated in the response to reviewers
Text: Rabbit reticulocyte lysates (RRL, Promega) were used to investigate the inhibition of translation by DPR proteins. We independently monitored translation of two mRNAs encoding non-homologous proteins of different lengths: nanoluciferase[71] and firefly luciferase. To measure the IC50s of the translational inhibitors cycloheximide (Akros Organics), harringtonine (AbCam), GDPCP (Jena Biosciences), PR20 and GR20, we monitored the translation of nanoluciferase mRNA in nuclease-treated RRL (Promega). […] Next, 10 ng/μl (final concentration) 6xhis-Nanoluciferase mRNA flanked with the 5'- and 3'-UTR from rabbit beta-globin[48] was added and the luminescence reactions were continuously measured by an Infinite m1000 pro microplate reader (Tecan) for 15 min at 30 °C. The 1st derivative of the luminescence reactions was determined in Prism 8 (GraphPad Software, LLC) and the maximum was identified and the mean of three maximums from independent experiments for each inhibitor was taken as the rate. The rates were plotted versus inhibitors concentration, and the plots were fitted in Prism 8 (GraphPad Software, LLC) to a 3-parameter inhibition model (Y = baseline + (max-baseline)/(1 + X/IC50)) to obtain the IC50 values where the baseline was constrained to 0. This procedure was modified to separate translation initiation from translation elongation by changing the time of addition of the inhibitors to ~300 s after mRNA addition when RLUs had reached a value of ~50,000. Here, the maximum of the first derivative was taken in the 2nd or later measurement taken after inhibitor addition.
The following additional controls indicate that DPR-induced changes in fluorescence were caused by translation inhibition.

rabbit 80S ribosomes = experiment: Kinetic peptidyl transfer (puromycin) assay on rabbit 80S ribosomes; format: biochemical
Text: To test the effects of PR20 on the mammalian peptidyl transferase, 80S ribosomes were purified from rabbit reticulocyte lysate (Green Hectares) and dissociated into 40S and 60S subunits as described in the section entitled “Cryo-EM complex of mammalian 80S ribosome with PR20”. A model leaderless mRNA fragment placing the AUG codon in the P-site and the UUC codon in the A site (CCAC AUG UUC CCCCCCCCCCCCCCCCCC), was synthesized by IDT. The 80S•mRNA•fMet-tRNA^fMet complex with PRn (where n = 10, 20, or 40) or GR20 was assembled as follows. one micrometer 60S subunit was mixed with the DPR (starting with the initial DPR concentration of 33x relative to its final concentration in the reaction) in Assembly Buffer containing 20 mM Tris-acetate (pH 7.0), 100 mM KOAc, 10 mM Mg(OAc)2, and the mixture was incubated for 5 min at 30 °C. […] 1095 nM [^35S]-fMet-tRNA^fMet and the 60S solution were added (0.5 volumes of the 40S solution), resulting in the following concentrations: 330 nM 60S, 400 nM 40S, 730 nM tRNA, 11 µM mRNA and 11x of final concentration of a DPR in the buffer (20 mM Tris-acetate (pH 7.0), 100 mM KOAc, 10 mM Mg(OAc)2). The solution was incubated for 5 min at 30 °C. The solution was diluted ten times with the same buffer, then puromycin (prepared in the same buffer) was added and time progress curves were recorded.
as §1, §2

[3] = target: Oryctolagus cuniculus (rabbit) 80S ribosome (rabbit (Oryctolagus cuniculus)) (UniProt G1SVW5)
[4] = target: Escherichia coli 70S ribosome (E. coli)
[5] = 30 nM 70S, 50 µM puromycin, 37 °C, read-out: apparent inhibition constant (Ki) of peptidyl transfer

What does the source list for GRGRGRGR [GR4]?
Ki (E. coli 70S ribosomes; [5]): > 2000 nM; effect on peptidyl transfer on 70S (E. coli 70S ribosomes; 2 µM): fail to inhibit peptidyl transfer

Which results are given for C[C@@H]1C[C@@H]([C@H](O)CC2CC(=O)NC(=O)C2)C(=O)[C@@H](C)C1 [Cycloheximide]?
site of ribosome accumulation, toe-printing of polysome fractions [1]: accumulate within the open reading frame; Ratio (START to CDS) [1]: 3.435; Normalized ratio START/ORF [1]: 1.274; normalized ratio START to CDS, MEAN ([1]; Fig. 2g): 0.5607; normalized ratio START to CDS, MEAN ([1]; Fig. 2h independent repeat): 0.326; IC50 [2]: 10 to 500 nM

How did the Ki (E. coli 70S ribosomes; [5]) turn out when PRPRPRPR [PR4] was run?
The Ki was > 2000 nM.

And the “effect on peptidyl transfer on 70S” value (E. coli 70S ribosomes; 2 µM)?
The value was “fail to inhibit peptidyl transfer”.

With COC(=O)C[C@](O)(CCC(C)(C)O)C(=O)O[C@@H]1C(OC)=C[C@]23CCCN2CCc2cc4c(cc2[C@H]13)OCO4 [Harringtonine] as the molecule, how does the “site of ribosome accumulation, toe-printing of polysome fractions” value [1] read?
Its value is “accumulate at the start codon”.

And the “Ratio (START to CDS)” value [1]?
The value was 6.47.

And the “Normalized ratio START/ORF” value [1]?
The value was 2.399.

And the “normalized ratio START to CDS, MEAN” value ([1]; Fig. 2g)?
Its value is 9.437.

What about the “normalized ratio START to CDS, MEAN” value ([1]; Fig. 2h independent repeat) of the same molecule?
Its value is 4.139.

What about the IC50 [2] of the same molecule?
The IC50 was 10 to 500 nM.

Which “effect on peptidyl transfer on rabbit 80S” value (rabbit 80S ribosomes; 2 µM, n=2) does the source give for PRPRPRPRPRPRPRPRPRPR [PR10] here?
The value was “no inhibition”.

And the Ki (E. coli 70S ribosomes; source data of Fig. 3b, unit printed in the legend b16 only, read-out: Ki, app of fMet-Pmn release from 70S)?
The Ki was 1050 nM.

What does the source list for N=C(N)NCCC[C@H](N)C(=O)O [L-arginine, reference compound]?
effect on nanoluciferase translation in RRL ([2]; 100 μM): not inhibited; effect on peptidyl transfer on rabbit 80S (rabbit 80S ribosomes; 50 µM): does not; effect on peptidyl transfer on 70S (E. coli 70S ribosomes; 50 µM (Supplementary Fig. 2b)): does not affect the peptidyl transfer reaction

Which results are given for “GR20 (poly-glycine-arginine, 20 repeats) (peptide)”?
IC50 of translation of nanoluciferase mRNA in 33% rabbit reticulocyte lysate [3]: 425 nM; IC50 of translation of nanoluciferase mRNA in 50% rabbit reticulocyte lysate [3]: 640 nM; apparent inhibition constant (Ki) of peptidyl transfer from [35S]-fMet-tRNAfMet to puromycin on E. coli 70S ribosomes [4]: 164 nM

B1: PR40: poly-PR peptide of 40 repeats (peptide)
peptide: PRPRPRPRPRPRPRPRPRPRPRPRPRPRPRPRPRPRPRPRPRPRPRPRPRPRPRPRPRPRPRPRPRPRPRPRPRPRPRPR
For B1, which Ki (rabbit 80S ribosomes; rabbit 80S) is on record?
The Ki was ≤ 30 nM.

What about the Ki (E. coli 70S ribosomes; [5]) of the same molecule?
Its Ki is ≤ 30 nM.

Which apparent inhibition constant (Ki) of peptidyl transfer to puromycin on E. coli 70S ribosomes [4] does the source give for GRGRGRGRGRGRGRGRGRGR [GR10 (poly-glycine-arginine, 10 repeats)] here?
Its apparent inhibition constant (Ki) of peptidyl transfer to puromycin on E. coli 70S ribosomes is 600 nM.

For PRPRPRPRPRPRPRPRPRPR [PR10 (poly-proline-arginine, 10 repeats)], which apparent inhibition constant (Ki) of peptidyl transfer to puromycin on E. coli 70S ribosomes [4] is on record?
Its apparent inhibition constant (Ki) of peptidyl transfer to puromycin on E. coli 70S ribosomes is 1000 nM.
